One data set relates to liver fibrosis. Briefly: Carbon tetrachloride liver fibrosis mouse model (hydroxyproline analysis). The class given is in vivo. Conditions: D30, versus carbon tetrachloride mice without intervention. The protocol: In order to determine if PLCs have a beneficial effect in treating liver fibrosis, fibrosis was initiated with 3× weekly application of 0.1 mL/kg injection of carbon tetrachloride diluted in corn oil for 2 weeks; control mice received corn oil itself for those 2 weeks. Carbon tetrachloride applications continued throughout the next step. Mice that received carbon tetrachloride were separated into 3 cohorts at the two-week mark: • 1. Plasmalyte application on D15, 22, 29 (Carbon Tet mice) • 2. rHGF diluted to 30 ug/mL in plasmalyte and dosed daily at 0.3 mg/kg (Peprotech HGF 100-39H-1 mg) • 3. PLC applications of ˜3e10 Platelet Equivalency Units (PEUs)/kg per mouse on D15, 22, 29. D15 was 5e10, D22 was 3e10, D29 was 5e10.
All mice were sacrificed on D30, livers were excised, and fresh frozen for ˜2-3 hours. Hydroxyproline analysis was done using a hydroxyproline kit (Abcam #ab222941).
Briefly, livers were trimmed, weighed, and the homogenized in DI water at ˜10 uL water/mg of liver with a Dounce homogenizer. The equivalent of 10 mg (˜100 uL) were removed and digested in equal volume 10N NaOH for 2 hours at 120° C. Samples were cooled and quenched with 100 uL 10N HCl, vortexed, and then spun in a centrifuge for 5 mins at 10,000×g. […] Samples were then processed as the manufacturer directed and analyzed with a plate reader. […]

The nature of data set [1]: In vivo localization of PLCs/HGF-ePLCs in fibrotic mice. Further details: species or system Immune-deficient mice (NSG). Conditions: 30 mins after treatment. The protocol:
Immune-deficient mice (NSG) were dosed with 0.25 mL/kg of carbon tetrachloride 3 times per week for 2 weeks to initiate liver fibrosis. Control mice were treated with similar volumes of corn oil. On D15, fibrotic mice were treated with the following: Plasmalyte, recombinant HGF (Peprotech Cat #100-39H-1 mg), PLCs that had been generated the previous day and diluted in plasmalyte, or HGF-ePLCs that had been generated the previous day and diluted in plasmalyte. Treatments were allowed to circulate for 30 mins and then mice were sacrificed, exsanguinated, and livers were prepared and frozen for analysis.
FIG. 32B examines circulating PLCs in blood. Blood from PLC or ePLC treatment mice was analyzed via flow cytometry with a human-specific CD61 antibody (Miltenyi Cat #130-110-754) as an indicator of circulating PLCs/ePLCs. […] In FIG. 32C, fluorescence staining of livers removed from treated fibrotic mice for HGF were performed. Livers were embedded in OCT, sectioned, and mounted on slides. Sections were then fixed in ice-cold Acetone for 10 mins and dried for an additional 20 mins. […] The results shown in FIG. 32D show fluorescence staining of livers removed from treated fibrotic mice for CD61. […]

Consider one substance from patent publication US20220143095A1, “NOVEL ANUCLEATED CELLS AND USES THEREOF” (Platelet Biogenesis, Inc., priority 2020, published 2022).

Consider “HGF: recombinant HGF (Peprotech HGF 100-39H-1 mg)”, for which the “collagen per weight of liver” value with liver fibrosis is on record as “apparent reduction of collagen per weight of liver”. In addition, the “HGF signal in liver (fluorescence staining)” value in data set [1] was “increase HGF signal”.
